From ChEMBL document CHEMBL1144819, “Antitumor agents. 261. 20(S)-protopanaxadiol and 20(s)-protopanaxatriol as antiangiogenic agents and total assignment of (1)H NMR spectra” (J Nat Prod, 2008)
≈ marks a conversion by molar mass, not a printed value.

How the values were obtained:
HUVEC [1] = experiment: Antiproliferative activity against HUVEC cells after 72 hrs; format: functional, cell-based; conditions: Homo sapiens
HUVEC [2] = experiment: Cell viability of HUVEC cells at 20 ug/ml; format: functional, Homo sapiens

SMILES | EC50 (HUVEC [1]) | Activity (HUVEC [2])
CC(C)=CCC[C@](C)(O)[C@H]1CC[C@]2(C)[C@@H]1[C@H](O)C[C@@H]1[C@@]3(C)CC[C@H](O)C(C)(C)[C@@H]3[C@@H](O)C[C@]12C | 6.64 µg/mL (≈ 13.9 µM) | 16.5%
CC(C)=CCC[C@](C)(O)[C@H]1CC[C@]2(C)[C@@H]1[C@H](O)C[C@@H]1[C@@]3(C)CC[C@H](O)C(C)(C)[C@@H]3CC[C@]12C | 2.16 µg/mL (≈ 4.69 µM) | 16.5%
